System: axonal mitochondrial membrane potential (ΨM)
Assay: Mitochondrial membrane potential (JC-1 red/green ratio) in axon shafts of DRG neurons
Assay type: cell-based, rat
Excerpt: Considering the above changes in mitochondrial transport, we asked if MAG and CSPG might affect mitochondrial function in axons. Functional mitochondria are needed to generate ATP, and the mitochondrion's membrane potential (ΨM) is thought to reflect its capacity for generating ATP. Increased anterograde transport of mitochondria in axons correlated with higher ΨM, as measured by the ratiometric 5,5′,6,6′-tetrachloro-1,1′,3,3′-tetraethylbenzimidazolcarbocyanine iodide (JC-1) dye (Miller and Sheetz, 2004), and reduced axonal ΨM in Drosophila melanogaster larvae was recently correlated with overall decrease in mitochondrial transport (Liao et al., 2017).
JC-1 (Life Technologies) was used for wm measurements. For this, DRG cultures were equilibrated in culture medium with […] JC-1 for 20 min at 37° C. Medium was replaced, and the cells were maintained at 37° C. in the high-content imaging system on which JC-1 fluorescent signals in green and red wavelengths were acquired. […]
Vesicle trafficking was quantified using differential ImageJ Difference Tracker Plug-in (Andrews et al., 2010). 50-80-μm long unbranched axon segments at approximately the mid-region between growth cone and cell body were analyzed. […] The distance between the growth tip at end of the post-CALI sequence and the pre-CALI baseline was measured using LAS-X software. Movement of ≥0.5 μm toward the axon shaft was counted as retracted. Fluorescence emission of the Mito-KR post-CALI was analyzed using ImageJ. For normalizing intensities across FRAP image sets, fluorescence intensity at each time point was scaled using the LAS-X FRAP module so that the residual fluorescence signal at t=0 min (post-bleach) was set at 0 and the prebleach intensity was set at 100% for each bleached ROI. For axon shaft FRAP analyses, each 50-μm bleached ROI was divided into […], and the fluorescence intensity recovery was measured as described above. […] A minimum of 75 unmyelinated axons was analyzed for each nerve. All unmyelinated axons from each analyzed image were included for quantitative studies. […]

Structure (SMILES) | effect on MAG-Fc- or CSPG-dependent declines in ΨM (10 μM TubA) | effect on Rho activator- and thapsigargin-dependent decrease in ΨM (+10 μM TubA) | ΨM in the axons (1 μg/ml Rho activator or 1 μM thapsigargin)
CN1CCc2c(c3ccccc3n2Cc2ccc(C(=O)NO)cc2)C1 [TubA, tubastatin] | prevented by inhibition of HDAC6 with TubA | also prevented by HDAC6 inhibition | 
C/C=C(/C)C(=O)O[C@H]1C(C)=C2[C@H]([C@@H]1OC(=O)CCCCCCC)[C@@](C)(OC(C)=O)C[C@H](OC(=O)CCC)[C@@]1(O)[C@H]2OC(=O)[C@@]1(C)O [thapsigargin] |  |  | decreased ΨM

Reference: patent US20210330756A1, “Acetylation of Miro1” (University of South Carolina, priority 2020, published 2021)
